From US10219516B2, “Molecules having pesticidal utility, and intermediates, compositions, and processes, related thereto” (priority 2015, dated 2019)

Columns and labels:
Type in all cases: in vivo
[1] = system: Cabbage Looper (Trichoplusia ni, TRIPNI); assay: Bioassay on Cabbage Looper (CL), 128-well diet tray assay; settings: Trichoplusia ni; Species CL (Cabbage Looper); read-out: CL (Biological Results, rating)
Outline: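 Second-instar larvae, one to five per well, were placed on artificial diet surface-treated with 50 μg/cm^2 test molecule applied in 90:10 acetone-water and dried, eight wells per molecule. Trays were covered, vented and held at 25° C., 14:10 light-dark for five to seven days; percent mortality per well was averaged.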

[2] = system: Yellow Fever Mosquito (Aedes aegypti, AEDSAE); assay: Bioassay on Yellow Fever Mosquito (YFM), 96-well plate larval assay; settings: Species YFM (Yellow Fever Mosquito)
Method: Certain molecules disclosed in this document were tested against YFM using procedures described in the following paragraph. In the reporting of the results, the “GPA & YFM Rating Table” was used (See Table Section).
Master plates containing 400 μg of a molecule dissolved in 100 μL of dimethyl sulfoxide (DMSO) (equivalent to a 4000 ppm solution) are used. A master plate of assembled molecules contains 15 μL per well. To this plate, 135 μL of a 90:10 water/acetone mixture is added to each well. A robot is programmed to dispense 15 μL aspirations from the master plate into an empty 96-well shallow plate (“daughter” plate). There are 6 reps (“daughter” plates) created per master. The created “daughter” plates are then immediately infested with YFM larvae.
The day before plates are to be treated, mosquito eggs are placed in Millipore water containing liver powder to begin hatching (4 g. into 400 mL). After the “daughter” plates are created using the robot, they are infested with 220 μL of the liver powder/larval mosquito mixture (about 1 day-old larvae). After plates are infested with mosquito larvae, a non-evaporative lid is used to cover the plate to reduce drying. Plates are held at room temperature for 3 days prior to grading. After 3 days, each well is observed and scored based on mortality. The results are indicated in the table entitled “Table ABC: Biological Results” (See Table Section).

[3] = system: Beet Armyworm (Spodoptera exigua, LAPHEG); assay: Bioassay on Beet Armyworm (BAW), 128-well diet tray assay; settings: Species BAW (Beet Armyworm), read-out: BAW (Biological Results, rating)
Outline: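 Percent mortality, averaged across eight replicate wells, was scored after five to seven days at 25° C. under a 14:10 light-dark cycle. Each well's diet carried 50 μg/cm^2 of the dried test molecule and held one to five second instar larvae.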

Compound: O=C(Nc1c(F)cccc1F)c1cc(NC(=O)[C@H]2[C@H](c3ccc(C(F)(F)F)cc3)C2(Cl)Cl)ccc1Cl (relative stereo) [F83, trans-2-Chloro-5-(2,2-dichloro-3-(4-(trifluoromethyl)phenyl)cyclopropane-1-carboxamido)-N-(2,6-difluorophenyl)benzamide]
- pest or weed control at 50 µg/cm2 [1]: 50 to 100%
- YFM (Biological Results, rating) [2]: A (80-100)
- pest or weed control at 50 µg/cm2 [3]: 50 to 100%

Compound: CN(C(=O)c1cc(NC(=O)[C@H]2[C@H](c3cc(C(F)(F)F)cc(C(F)(F)F)c3)C2(Cl)Cl)ccc1Cl)c1ccc(F)cc1 (relative stereo) [F85, trans-5-(3-(3,5-Bis(trifluoromethyl)phenyl)-2,2-dichlorocyclopropane-1-carboxamido)-2-chloro-N-(4-fluorophenyl)-N-methylbenzamide]
- pest or weed control at 50 µg/cm2 [1]: 50 to 100%
- YFM (Biological Results, rating) [2]: A (80-100)
- pest or weed control at 50 µg/cm2 [3]: 50 to 100%

Compound: CN(C(=O)c1cc(NC(=O)[C@H]2[C@H](c3cc(Cl)cc(C(F)(F)F)c3)C2(Cl)Cl)ccc1Cl)c1ccc(F)cc1 (relative stereo) [F88, trans-2-Chloro-5-(2,2-dichloro-3-(3-chloro-5-(trifluoromethyl)phenyl)cyclopropane-1-carboxamido)-N-(4-fluorophenyl)-N-methylbenzamide]
- pest or weed control at 50 µg/cm2 [1]: 50 to 100%
- YFM (Biological Results, rating) [2]: B (More than 0-Less than 80)
- pest or weed control at 50 µg/cm2 [3]: 50 to 100%

Compound: CN(C(=O)c1cc(NC(=O)[C@H]2[C@H](c3cc(Br)cc(Br)c3)C2(Cl)Cl)ccc1Cl)c1ccc(F)cc1 (relative stereo) [F91, trans-2-Chloro-5-(2,2-dichloro-3-(3,5-dibromophenyl)cyclopropane-1-carboxamido)-N-(4-fluorophenyl)-N-methylbenzamide]
- pest or weed control at 50 µg/cm2 [1]: 50 to 100%
- YFM (Biological Results, rating) [2]: B (More than 0-Less than 80)
- pest or weed control at 50 µg/cm2 [3]: 50 to 100%

Compound: O=C(Nc1ccc(Cl)c(C(=O)N(CC(F)(F)F)c2ccc(F)cc2)c1)[C@H]1[C@H](c2cc(Cl)cc(Cl)c2)C1(Cl)Cl (relative stereo) [F100, trans-2-Chloro-5-(2,2-dichloro-3-(3,5-dichlorophenyl)cyclopropane-1-carboxamido)-N-(4-fluorophenyl)-N-(2,2,2-trifluoroethyl)benzamide]
- pest or weed control at 50 µg/cm2 [1]: 50 to 100%
- YFM (Biological Results, rating) [2]: A (80-100)
- pest or weed control at 50 µg/cm2 [3]: 50 to 100%

Compound: Cc1cc(Cl)cc([C@H]2[C@H](C(=O)Nc3ccc(Cl)c(C(=O)Nc4ccc(F)cc4)c3)C2(Cl)Cl)c1 (relative stereo) [F116, trans-2-Chloro-5-(2,2-dichloro-3-(3-chloro-5-methylphenyl)cyclopropane-1-carboxamido)-N-(4-fluorophenyl)benzamide]
- pest or weed control at 50 µg/cm2 [1]: 50 to 100%
- YFM (Biological Results, rating) [2]: A (80-100)
- pest or weed control at 50 µg/cm2 [3]: 50 to 100%

Compound: Cc1cc(Cl)cc([C@H]2[C@H](C(=O)Nc3ccc(Cl)c(C(=O)Nc4c(F)cccc4F)c3)C2(Cl)Cl)c1 (relative stereo) [F118, trans-2-Chloro-5-(2,2-dichloro-3-(3-chloro-5-methylphenyl)cyclopropane-1-carboxamido)-N-(2,6-difluorophenyl)benzamide]
- pest or weed control at 50 µg/cm2 [1]: 50 to 100%
- YFM (Biological Results, rating) [2]: A (80-100)
- pest or weed control at 50 µg/cm2 [3]: 50 to 100%

Compound: O=C(Nc1ccc(F)cc1)c1cc(NC(=O)[C@H]2[C@H](c3cc(Cl)cc(Cl)c3)C2(Br)Br)ccc1Cl (relative stereo) [F122, trans-2-Chloro-5-(2,2-dibromo-3-(3,5-dichlorophenyl)cyclopropane-1-carboxamido)-N-(4-fluorophenyl)benzamide]
- pest or weed control at 50 µg/cm2 [1]: 50 to 100%
- YFM (Biological Results, rating) [2]: B (More than 0-Less than 80)
- pest or weed control at 50 µg/cm2 [3]: 50 to 100%

Compound: Cc1cc([C@H]2[C@H](C(=O)Nc3ccc(Cl)c(C(=O)Nc4ccc(F)cc4)c3)C2(Cl)Cl)cc(Cl)c1Cl (relative stereo) [F123, trans-2-Chloro-5-(2,2-dichloro-3-(3,4-dichloro-5-methylphenyl)cyclopropane-1-carboxamido)-N-(4-fluorophenyl)benzamide]
- pest or weed control at 50 µg/cm2 [1]: 50 to 100%
- YFM (Biological Results, rating) [2]: B (More than 0-Less than 80)
- pest or weed control at 50 µg/cm2 [3]: 50 to 100%

Compound: O=C(Nc1ccc(F)cc1)c1cc(NC(=O)[C@H]2[C@H](c3cc(Cl)cc(Cl)c3)C2(Cl)Cl)ccc1OC(F)(F)F (relative stereo) [F135, trans-5-(2,2-Dichloro-3-(3,5-dichlorophenyl)cyclopropane-1-carboxamido)-N-(4-fluorophenyl)-2-(trifluoromethoxy)benzamide]
- pest or weed control at 50 µg/cm2 [1]: 50 to 100%
- YFM (Biological Results, rating) [2]: A (80-100)
- pest or weed control at 50 µg/cm2 [3]: 50 to 100%

Compound: O=C(Nc1ccc(F)cc1)c1cc(Cl)cc(NC(=O)[C@H]2[C@H](c3cc(Cl)cc(Cl)c3)C2(Cl)Cl)c1 (relative stereo) [F136, trans-3-Chloro-5-(2,2-dichloro-3-(3,5-dichlorophenyl)cyclopropane-1-carboxamido)-N-(4-fluorophenyl)benzamide]
- pest or weed control at 50 µg/cm2 [1]: 50 to 100%
- YFM (Biological Results, rating) [2]: A (80-100)
- pest or weed control at 50 µg/cm2 [3]: 50 to 100%

Compound: O=C(Nc1c(F)cccc1F)c1cc(NC(=O)[C@H]2[C@H](c3ccc(F)c(Cl)c3)C2(Cl)Cl)ccc1Cl (relative stereo) [F161, trans-2-Chloro-5-(2,2-dichloro-3-(3-chloro-4-fluorophenyl)cyclopropane-1-carboxamido)-N-(2,6-difluorophenyl)benzamide]
- pest or weed control at 50 µg/cm2 [1]: 50 to 100%
- YFM (Biological Results, rating) [2]: A (80-100)
- pest or weed control at 50 µg/cm2 [3]: 50 to 100%

Compound: O=C(Nc1c(F)cccc1F)c1cc(NC(=O)[C@H]2[C@H](c3cc(Cl)cc(Br)c3)C2(Cl)Cl)ccc1Cl (relative stereo) [F164, trans-5-(3-(3-Bromo-5-chlorophenyl)-2,2-dichlorocyclopropane-1-carboxamido)-2-chloro-N-(2,6-difluorophenyl)benzamide]
- pest or weed control at 50 µg/cm2 [1]: 50 to 100%
- YFM (Biological Results, rating) [2]: A (80-100)
- pest or weed control at 50 µg/cm2 [3]: 50 to 100%

Compound: CN(C)c1ccc(NC(=O)c2cc(NC(=O)[C@H]3[C@H](c4cc(Cl)cc(Cl)c4)C3(Cl)Cl)ccc2Cl)cc1 (relative stereo) [F171, trans-2-Chloro-5-(2,2-dichloro-3-(3,5-dichlorophenyl)cyclopropane-1-carboxamido)-N-(4-(dimethylamino)phenyl)benzamide]
- pest or weed control at 50 µg/cm2 [1]: 50 to 100%
- YFM (Biological Results, rating) [2]: A (80-100)
- pest or weed control at 50 µg/cm2 [3]: 50 to 100%

Compound: Nc1ccc(NC(=O)c2cc(NC(=O)[C@H]3[C@H](c4cc(Cl)cc(Cl)c4)C3(Cl)Cl)ccc2Cl)cc1F (relative stereo) [F174, trans-N-(4-Amino-3-fluorophenyl)-2-chloro-5-(2,2-dichloro-3-(3,5-dichlorophenyl)cyclopropane-1-carboxamido)benzamide]
- pest or weed control at 50 µg/cm2 [1]: 50 to 100%
- YFM (Biological Results, rating) [2]: A (80-100)
- pest or weed control at 50 µg/cm2 [3]: 50 to 100%

Compound: Nc1ccc(NC(=O)c2cc(NC(=O)[C@H]3[C@H](c4cc(Cl)cc(Cl)c4)C3(Cl)Cl)ccc2Cl)c(F)c1 (relative stereo) [F175, trans-N-(4-amino-2-fluorophenyl)-2-chloro-5-(2,2-dichloro-3-(3,5-dichlorophenyl)cyclopropane-1-carboxamido)benzamide]
- pest or weed control at 50 µg/cm2 [1]: 50 to 100%
- YFM (Biological Results, rating) [2]: A (80-100)
- pest or weed control at 50 µg/cm2 [3]: 50 to 100%

Compound: CNc1ccc(NC(=O)c2cc(NC(=O)[C@H]3[C@H](c4cc(Cl)cc(Cl)c4)C3(Cl)Cl)ccc2Cl)cc1F (relative stereo) [F176, trans-2-Chloro-5-(2,2-dichloro-3-(3,5-dichlorophenyl)cyclopropane-1-carboxamido)-N-(3-fluoro-4-(methylamino)phenyl)benzamide]
- pest or weed control at 50 µg/cm2 [1]: 50 to 100%
- YFM (Biological Results, rating) [2]: A (80-100)
- pest or weed control at 50 µg/cm2 [3]: 50 to 100%

Compound: CNc1ccc(NC(=O)c2cc(NC(=O)[C@H]3[C@H](c4cc(Cl)cc(Cl)c4)C3(Cl)Cl)ccc2Cl)c(F)c1 (relative stereo) [F177, trans-2-Chloro-5-(2,2-dichloro-3-(3,5-dichlorophenyl)cyclopropane-1-carboxamido)-N-(2-fluoro-4-(methylamino)phenyl)benzamide]
- pest or weed control at 50 µg/cm2 [1]: 50 to 100%
- YFM (Biological Results, rating) [2]: A (80-100)
- pest or weed control at 50 µg/cm2 [3]: 50 to 100%

Compound: COc1c(Cl)cc([C@H]2[C@H](C(=O)Nc3ccc(Cl)c(C(=O)Nc4ccccc4)c3)C2(Cl)Cl)cc1Cl (relative stereo) [F179, trans-2-chloro-5-(2,2-dichloro-3-(3,5-dichloro-4-methoxyphenyl)cyclopropane-1-carboxamido)-N-phenylbenzamide]
- pest or weed control at 50 µg/cm2 [1]: 50 to 100%
- YFM (Biological Results, rating) [2]: B (More than 0-Less than 80)
- pest or weed control at 50 µg/cm2 [3]: 50 to 100%
